According to patent US8597666B2, “Compressed solid dosage form manufacturing process well-suited for use with drugs of low aqueous solubility and compressed solid dosage forms made thereby” (Teva Pharmaceutical Industries, Ltd., priority 2004, dated 2013):
Where a name gives a salt, the structure may show the parent alone.

Columns and labels:
[1] = Particle size distribution by laser light scattering (Malvern Mastersizer S); assay type: physicochemical; conditions: raloxifene hydrochloride used in Formulations 1-4; mean equivalent spherical diameter
From the text: All particle sizes herein refer to the mean equivalent spherical diameter measured by laser light scattering techniques. Thus, the notation “d(0.5) greater than about 35 μm” means that 50% of the particles by volume have a mean equivalent spherical diameter of more than about 35 μm, as measured by laser light scattering. The laser light scattering measurement instrument used to measure the particle size distributions in the Examples was a Malvern Mastersizer® S. The dissolution profile was generated by testing in either 900 mL or 2 L of a 0.1% aqueous polysorbate 80 solution, using paddle apparatus (USP Apparatus II) at 50 rpm at 37° C.

[2] = starch content increased from 5 to 20%; tablets made by double compression; cited from earlier work

| SMILES | particle size d(0.5) [1] | particle size d(0.9) [1] | increase in rate of dissolution of salicylic acid from tablets [2] |
| --- | --- | --- | --- |
| O=C(c1ccc(OCCN2CCCCC2)cc1)c1c(-c2ccc(O)cc2)sc2cc(O)ccc12 [raloxifene hydrochloride] | 38.8 μm | 90.4 μm |  |
| O=C(O)c1ccccc1O [salicylic acid] |  |  | three fold |
